Assay results from patent US4418064A, “Chemotherapeutically active maytansinoids: treflorine, trenudine, and N-methyltrenudone” (priority 1982, dated 1983).
≈ marks a conversion by molar mass, not a printed value.

What was measured:
[1] = tested on: human epidermoid carcinoma of the mouth (KB); experiment: cells; settings: for IC50: Homo sapiens, KB, 72 h, read-out: ED50; for KB cytotoxicity compared with that reported for maytansine, maytanbutine and others: compared with Kupchan, J. Med. Chem. 21, Table II
Description: The KB Cell Culture Screen used in guiding the above-described fractionations was conducted in accordance with the National Cancer Institute (NCI) Protocol 1.600 [Geran et al., Cancer Chemother. Rep., Part 3, 3: 17 (1972)] in which the effectiveness of the test compounds against cultivated cells of human epidermoid carcinoma of the mouth was evaluated. […] Such a dose is referred to as ED50 and activity is indicated for ED50 levels of ≤30 μg./ml. The smaller the ED50 level, the more cytotoxic the test material.

[2] = tested on: lymphocytic leukemia P388; experiment: PS system, lymphocytic leukemia P388 in mice, NCI Protocol 1.200, survival; format: in vivo; settings: i.p. once a day for 9 days
Description: Another indication of fraction activity is the effectiveness in the PS system against lymphocytic leukemia P388 in mice. These assays are conducted according to the NCI Protocol 1.200 described in Geran et al., supra. Starting 24 hours after the tumor implantation, previously determined doses of each compound were injected intraperitoneally once a day for 9 days. Survival time of treated leukemic mice is compared to that of untreated mice (T/C×100). A T/C value of 100% indicates no activity. A T/C value greater than 100% means that the treated mice are surviving longer than the control mice. A compound giving a T/C value greater than 125% is indicative of activity as defined by the NCI Protocols, above.

B16 melanocarcinoma = experiment: B1 system, B16 melanocarcinoma in mice, NCI Protocol 1.300; format: in vivo; settings: i.p. once a day for 9 days, host sex M
Description: The compounds were also evaluated in the B1 system against B16 melanocarcinoma in mice. This assay is conducted in accordance with the NCI Protocol 1.300 described in Geran et al., supra. Starting 24 hours after the tumor implantation, predetermined doses of the compound were injected intraperitoneally once a day for 9 days. The results are reported in Table VI below as the percent T/C.

[3] = tested on: lymphocytic leukemia P388; settings: cited from earlier work; for activity against lymphocytic leukemia P388: at the microgram per kilogram level, Wani et al.; for dosage level at which activity in the PS system was demonstrated: U.S. Pat. No. 4,313,946
leukemia = settings: Kupchan et al., J. Org. Chem. 42; cited from earlier work
European corn borer = settings: U.S. Pat. No. 4,315,929; cited from earlier work
[4] = 4.00 μg./kg./inj., distilled water + alcohol, host sex M
[5] = 8.00 μg./kg./inj., distilled water + alcohol, host sex M
[6] = 16.00 μg./kg./inj., distilled water + alcohol, host sex M
[7] = 32.00 μg./kg./inj., distilled water + alcohol, host sex M
[8] = 4.00 μg./kg./inj., distilled water + alcohol
[9] = 8.00 μg./kg./inj., distilled water + alcohol
[10] = 16.00 μg./kg./inj., distilled water + alcohol
[11] = 32.00 μg./kg./inj., distilled water + alcohol

COc1cc2cc(c1Cl)N1CC(=O)C(C)(O)C(=O)N(C)C(C)C(=O)O[C@@H](CC1=O)[C@]1(C)O[C@H]1[C@H](C)[C@@H]1C[C@@](O)(NC(=O)O1)[C@H](OC)/C=C/C=C(\C)C2OC (some centres unmarked) [N-methyltrenudone]
IC50 [1]: < 10 ng/mL | T/C (%) [2, 4]: 153% | T/C (%) [2, 5]: 108% | T/C (%) [2, 6]: toxic | T/C (%) [2, 7]: toxic | T/C (%) (B16 melanocarcinoma; [8]): 109% | T/C (%) (B16 melanocarcinoma; [9]): 93% | T/C (%) (B16 melanocarcinoma; [10]): 111% | T/C (%) (B16 melanocarcinoma; [11]): 95%

COc1cc2cc(c1Cl)N(C)C(=O)C[C@H](OC(=O)[C@H](C)N(C)C(=O)C(C)C)[C@]1(C)O[C@H]1[C@H](C)[C@@H]1C[C@@](O)(NC(=O)O1)[C@H](OC)/C=C/C=C(\C)C2OC(C)=O (some centres unmarked) [colubrinol acetate]
activity against lymphocytic leukemia P388 [3]: demonstrated activity

COc1cc2cc(c1Cl)N(C)C(=O)C[C@H](OC(=O)[C@H](C)N(C)C(=O)C(C)C)[C@]1(C)O[C@H]1[C@H](C)[C@@H]1C[C@@](O)(NC(=O)O1)[C@H](OC)/C=C/C=C(\C)C2O (some centres unmarked) [colubrinol]
activity against lymphocytic leukemia P388 [3]: demonstrated activity

C=C(C)C(=O)N(C)[C@@H](C)C(=O)O[C@H]1CC(=O)N(C)c2cc(cc(OC)c2Cl)C(OC)/C(C)=C/C=C/[C@@H](OC)[C@@]2(O)C[C@H](OC(=O)N2)[C@@H](C)[C@@H]2O[C@@]12C (some centres unmarked) [dehydrotrewiasine]
dosage level at which activity in the PS system was demonstrated [3]: 4 µg/kg

COc1cc2cc(c1Cl)N(C)C(=O)C[C@H](OC(=O)C(C)C)[C@]1(C)O[C@H]1[C@H](C)[C@@H]1C[C@@](O)(NC(=O)O1)[C@H](OC)/C=C/C=C(\C)C2OC(C)=O (some centres unmarked) [maytanbutacine]
antileukemic activity (leukemia): antileukemic principle

COc1cc2cc(c1Cl)N1CCC(C)(O)C(=O)NC(C)C(=O)O[C@@H](CC1=O)[C@]1(C)O[C@H]1[C@H](C)[C@@H]1C[C@@](O)(NC(=O)O1)[C@H](OC)/C=C/C=C(\C)C2OC (some centres unmarked) [treflorine]
IC50 [1]: 0.27 ng/mL (≈ 0.36 nM) | KB cytotoxicity compared with that reported for maytansine, maytanbutine and others [1]: at least one order of magitude less | T/C (%) [2, 4]: 150% | T/C (%) [2, 5]: 144% | T/C (%) [2, 6]: 157% | T/C (%) [2, 7]: 150% | T/C (%) (B16 melanocarcinoma; [8]): 130% | T/C (%) (B16 melanocarcinoma; [9]): 160% | T/C (%) (B16 melanocarcinoma; [10]): 162% | T/C (%) (B16 melanocarcinoma; [11]): 178%

COc1cc2cc(c1Cl)N1CC(O)C(C)(O)C(=O)NC(C)C(=O)O[C@@H](CC1=O)[C@]1(C)O[C@H]1[C@H](C)[C@@H]1C[C@@](O)(NC(=O)O1)[C@H](OC)/C=C/C=C(\C)C2OC (some centres unmarked) [trenudine]
IC50 [1]: 0.64 ng/mL (≈ 0.835 nM) | KB cytotoxicity compared with that reported for maytansine, maytanbutine and others [1]: at least one order of magitude less | T/C (%) ([2]; 2.00 μg./kg./inj., distilled water + alcohol, host sex F): 144% | T/C (%) ([2]; 4.00 μg./kg./inj., distilled water + alcohol, host sex F): 137% | T/C (%) ([2]; 8.00 μg./kg./inj., distilled water + alcohol, host sex F): 146% | T/C (%) ([2]; 16.00 μg./kg./inj., distilled water + alcohol, host sex F): 137% | T/C (%) ([2]; 32.00 μg./kg./inj., distilled water + alcohol, host sex F): toxic | T/C (%) (B16 melanocarcinoma; 1.00 μg./kg./inj., distilled water + alcohol): 137% | T/C (%) (B16 melanocarcinoma; 2.00 μg./kg./inj., distilled water + alcohol): 147% | T/C (%) (B16 melanocarcinoma; [8]): 145% | T/C (%) (B16 melanocarcinoma; [9]): 176% | T/C (%) (B16 melanocarcinoma; [10]): 197% | T/C (%) (B16 melanocarcinoma; [11]): toxic

COc1cc2cc(c1Cl)N(C)C(=O)C[C@H](OC(=O)[C@H](C)N(C)C(=O)C(C)C)[C@]1(C)O[C@H]1[C@H](C)[C@@H]1C[C@@](O)(NC(=O)O1)[C@H](OC)/C=C/C=C(\C)C2OC (some centres unmarked) [trewiasine, reference compound]
ED50 ([1]; dose that inhibits growth to 50% of control, 3 days after drug addition): 0.2 ng/mL (≈ 0.267 nM) | dosage level at which activity in the PS system was demonstrated [3]: 4 µg/kg | T/C (%) ([2]; 4.00 μg./kg./inj., vehicle Klucel, host sex F): 163% | T/C (%) ([2]; 8.00 μg./kg./inj., vehicle Klucel, host sex F): 140% | T/C (%) ([2]; 16.00 μg./kg./inj., vehicle Klucel, host sex F): 154% | T/C (%) ([2]; 32.00 μg./kg./inj., vehicle Klucel, host sex F): 128% | T/C (%) ([2]; 64.00 μg./kg./inj., vehicle Klucel, host sex F): 91% | control of the European corn borer (European corn borer): effective in controlling the European corn borer | T/C (%) (B16 melanocarcinoma; 1.00 μg./kg./inj., vehicle Klucel): 133% | T/C (%) (B16 melanocarcinoma; 2.00 μg./kg./inj., vehicle Klucel): 140% | T/C (%) (B16 melanocarcinoma; 4.00 μg./kg./inj., vehicle Klucel): 157% | T/C (%) (B16 melanocarcinoma; 8.00 μg./kg./inj., vehicle Klucel): 185% | T/C (%) (B16 melanocarcinoma; 16.00 μg./kg./inj., vehicle Klucel): 172% | T/C (%) (B16 melanocarcinoma; 32.00 μg./kg./inj., vehicle Klucel): 183%
